Test results taken from patent US20250100995A1, “CEREBLON BINDING COMPOUNDS, COMPOSITIONS THEREOF, AND METHODS OF TREATMENT THEREWITH” (CELGENE CORPORATION, priority 2021, published 2025).
Where a name gives a salt, the structure may show the parent alone.

Target: T1, AR (Homo sapiens, UniProt P10275)
T1 construct: endogenous in cells; host or cells: VCaP cells
T1 sequence (P10275 1-920): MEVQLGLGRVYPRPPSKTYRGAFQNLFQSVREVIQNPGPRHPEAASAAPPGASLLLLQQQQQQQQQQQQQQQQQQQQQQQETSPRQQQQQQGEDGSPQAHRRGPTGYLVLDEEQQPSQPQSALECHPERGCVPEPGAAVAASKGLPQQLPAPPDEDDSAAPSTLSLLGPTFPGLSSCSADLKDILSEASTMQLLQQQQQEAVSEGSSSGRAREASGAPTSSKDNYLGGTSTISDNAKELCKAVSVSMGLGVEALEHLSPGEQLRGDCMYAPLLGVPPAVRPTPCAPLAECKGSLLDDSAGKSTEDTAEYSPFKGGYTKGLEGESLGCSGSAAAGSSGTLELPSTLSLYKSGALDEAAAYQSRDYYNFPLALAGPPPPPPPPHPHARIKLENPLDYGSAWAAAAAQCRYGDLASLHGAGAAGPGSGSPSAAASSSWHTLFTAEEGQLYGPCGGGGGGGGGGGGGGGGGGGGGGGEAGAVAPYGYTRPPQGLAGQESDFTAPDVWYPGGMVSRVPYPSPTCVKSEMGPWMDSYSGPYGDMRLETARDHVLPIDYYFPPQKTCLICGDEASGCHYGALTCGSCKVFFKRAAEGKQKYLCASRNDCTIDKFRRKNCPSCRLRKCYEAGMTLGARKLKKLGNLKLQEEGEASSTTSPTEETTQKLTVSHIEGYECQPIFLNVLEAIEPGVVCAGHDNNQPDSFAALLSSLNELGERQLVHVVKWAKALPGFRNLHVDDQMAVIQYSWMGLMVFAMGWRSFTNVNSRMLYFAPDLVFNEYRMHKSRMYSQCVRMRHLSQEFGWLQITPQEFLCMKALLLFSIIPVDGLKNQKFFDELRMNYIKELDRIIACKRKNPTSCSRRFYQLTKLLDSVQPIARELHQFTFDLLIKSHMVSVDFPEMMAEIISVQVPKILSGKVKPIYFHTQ
Experiment: VCAP AR Degradation Assay
Assay type: cell-based
Conditions: VCaP cells, 24 h, AR ELISA; for DC50: concentration of compound when AR level = 50% of DMSO control; for Y: lowest measured AR level normalized to DMSO control (AR degradation efficiency)
Experimental: VCAP AR Degradation Assay. Test compounds were pre-dispensed into a Corning CellBind 96-well clear bottom plate (Cat #3300) using an acoustic dispenser to make a 10-point concentration series at 1:3 dilution for each compound. The final top concentration of each compound was 5 μM. DMSO at a final concentration of 0.1% was used as a control. VCaP cells cultured in DMEM with 8% fetal bovine serum (FBS) were seeded at 50K cells per well in a 200 μL volume into the compound plate and incubated at 37° C. in a CO2 incubator for 24 h. The medium was carefully removed from the cells and the plate was placed on ice. One hundred μL of ice-cold 1× cell lysis buffer from Cell Signaling Technologies (Cat #9803) was added to each well of the cells and the plate was incubated at 4° C. on a shaker for 1 h. Fifteen μL of cell lysate was used for AR ELISA detection using a PathScan Total Sandwich AR ELISA kit (Cell Signaling Technology, Cat #12580). AR levels in compound-treated wells were normalized to that of DMSO control and expressed as percent of control (PoC) (y). A Four Parameter Logistic Model (Sigmoidal Dose-Response Model) was used to determine the compound's DC50, and EC50, using the following equation: […]
The lowest measured AR level normalized to DMSO control in response to compound treatment, termed Y value, was used to characterize the compound-mediated AR degradation efficiency.

## C[C@@H]1CN(CCO[C@H]2CC[C@H](N3C(=S)N(c4ccc(C#N)c(C(F)(F)F)c4)C(=O)C3(C)C)CC2)C[C@H](C)N1CC(=O)Nc1ccc(C2(C)CCC(=O)NC2=O)cn1 (single isomer, unassigned) [Cmpd 5, hydrochloride]
  DC50: > 200 nM
  Y: *** (40%<Y<80%)

## C[C@@H]1CN(CCO[C@H]2CC[C@H](N3C(=S)N(c4ccc(C#N)c(C(F)(F)F)c4)C(=O)C3(C)C)CC2)C[C@H](C)N1CC(=O)Nc1ccc(C2(C)CCC(=O)NC2=O)cn1 (single isomer, unassigned) [Cmpd 6, hydrochloride]
  DC50: > 200 nM
  Y: *** (40%<Y<80%)

## C[C@@H]1CN(CCCO[C@H]2CC[C@H](N3C(=S)N(c4ccc(C#N)c(C(F)(F)F)c4)C(=O)C3(C)C)CC2)C[C@H](C)N1CC(=O)Nc1cc(N2CCC(=O)NC2=O)ccn1 (single isomer, unassigned) [Cmpd 7, hydrochloride]
  DC50: > 200 nM
  Y: *** (40%<Y<80%)

## C[C@@H]1CN(CCO[C@H]2CC[C@H](N3C(=S)N(c4ccc(C#N)c(C(F)(F)F)c4)C(=O)C3(C)C)CC2)C[C@H](C)N1CC(=O)Nc1cc(C2(C)CCC(=O)NC2=O)ccn1 (single isomer, unassigned) [Cmpd 8, hydrochloride]
  DC50: ≤ 5 nM
hydrochloride
  Y: * (0<Y≤20%)

## C[C@@H]1CN(CCO[C@H]2CC[C@H](N3C(=S)N(c4ccc(C#N)c(C(F)(F)F)c4)C(=O)C3(C)C)CC2)C[C@H](C)N1CC(=O)Nc1cc(C2(C)CCC(=O)NC2=O)ccn1 (single isomer, unassigned) [Cmpd 9, hydrochloride]
  DC50: ≤ 5 nM
hydrochloride
  Y: ** (20%<Y≤40%)

## C[C@@H]1CN(CCO[C@H]2CC[C@H](N3C(=S)N(c4ccc(C#N)c(C(F)(F)F)c4)C(=O)C3(C)C)CC2)C[C@H](C)N1CC(=O)Nc1cc(C2CCC(=O)NC2=O)ccn1 (stereo partly drawn) [Cmpd 1, 2-((2R,6S)-4-(2-((trans-4-(3-(4-Cyano-3-(trifluoromethyl)phenyl)-5,5-dimethyl-4-oxo-2-thioxoimidazolidin-1-yl)cyclohexyl)oxy)ethyl)-2,6-dimethylpiperazin-1-yl)-N-(4-(2,6-dioxopiperidin-3-yl)pyridin-2-yl)acetamide hydrochloride]
  DC50: 5 to 50 nM
  Y: ** (20%<Y≤40%)

## C[C@@H]1CN(CCO[C@H]2CC[C@H](N3C(=S)N(c4ccc(C#N)c(C(F)(F)F)c4)C(=O)C3(C)C)CC2)C[C@H](C)N1CC(=O)Nc1ccc(C2CCC(=O)NC2=O)cn1 (stereo partly drawn) [Cmpd 2, 2-((2R,6S)-4-(2-((trans-4-(3-(4-Cyano-3-(trifluoromethyl)phenyl)-5,5-dimethyl-4-oxo-2-thioxoimidazolidin-1-yl)cyclohexyl)oxy)ethyl)-2,6-dimethylpiperazin-1-yl)-N-(5-(2,6-dioxopiperidin-3-yl)pyridin-2-yl)acetamide hydrochloride]
  DC50: 5 to 50 nM
  Y: ** (20%<Y≤40%)

## C[C@@H]1CN(CCO[C@H]2CC[C@H](N3C(=S)N(c4ccc(C#N)c(C(F)(F)F)c4)C(=O)C3(C)C)CC2)C[C@H](C)N1CC(=O)Nc1ccc(N2CCC(=O)NC2=O)cn1 [Cmpd 3, 2-((2R,6S)-4-(2-((trans-4-(3-(4-Cyano-3-(trifluoromethyl)phenyl)-5,5-dimethyl-4-oxo-2-thioxoimidazolidin-1-yl)cyclohexyl)oxy)ethyl)-2,6-dimethylpiperazin-1-yl)-N-(5-(2,4-dioxotetrahydropyrimidin-1(2H)-yl)pyridin-2-yl)acetamide hydrochloride]
  DC50: > 200 nM
  Y: *** (40%<Y<80%)

## C[C@@H]1CN(CCO[C@H]2CC[C@H](N3C(=S)N(c4ccc(C#N)c(Cl)c4)C(=O)C3(C)C)CC2)C[C@H](C)N1CC(=O)Nc1cc(C2CCC(=O)NC2=O)ccn1 (stereo partly drawn) [Cmpd 4, 2-((2R,6S)-4-(2-((trans-4-(3-(3-Chloro-4-cyanophenyl)-5,5-dimethyl-4-oxo-2-thioxoimidazolidin-1-yl)cyclohexyl)oxy)ethyl)-2,6-dimethylpiperazin-1-yl)-N-(4-(2,6-dioxopiperidin-3-yl)pyridin-2-yl)acetamide hydrochloride]
  DC50: 5 to 50 nM
  Y: ** (20%<Y≤40%)

## C[C@@H]1CN(CCCO[C@H]2CC[C@H](N3C(=S)N(c4ccc(C#N)c(C(F)(F)F)c4)C(=O)C3(C)C)CC2)C[C@H](C)N1CC(=O)Nc1ccc(C2CCC(=O)NC2=O)cn1 (stereo partly drawn) [Cmpd 10, 2-((2R,6S)-4-(3-((trans-4-(3-(4-Cyano-3-(trifluoromethyl)phenyl)-5,5-dimethyl-4-oxo-2-thioxoimidazolidin-1-yl)cyclohexyl)oxy)propyl)-2,6-dimethylpiperazin-1-yl)-N-(5-(2,6-dioxopiperidin-3-yl)pyridin-2-yl)acetamide hydrochloride]
  DC50: > 200 nM
  Y: *** (40%<Y<80%)

## C[C@@H]1CN(CCO[C@H]2CC[C@H](N3C(=S)N(c4ccc(C#N)c(C(F)(F)F)c4)C(=O)C3(C)C)CC2)C[C@H](C)N1CCOc1ccc(N2CCC(=O)NC2=O)cn1 [Cmpd 11, 4-(3-(trans-4-(2-((3R,5S)-4-(2-((5-(2,4-Dioxotetrahydropyrimidin-1(2H)-yl)pyridin-2-yl)oxy)ethyl)-3,5-dimethylpiperazin-1-yl)ethoxy)cyclohexyl)-4,4-dimethyl-5-oxo-2-thioxoimidazolidin-1-yl)-2-(trifluoromethyl)benzonitrile hydrochloride]
  DC50: > 200 nM
  Y: *** (40%<Y<80%)

## C[C@@H]1CN(CCO[C@H]2CC[C@H](N3C(=S)N(c4ccc(C#N)c(C(F)(F)F)c4)C(=O)C3(C)C)CC2)C[C@H](C)N1CCCOc1ccc(N2CCC(=O)NC2=O)cn1 [Cmpd 12, 4-(3-(trans-4-(2-((3R,5S)-4-(3-((5-(2,4-Dioxotetrahydropyrimidin-1(2H)-yl)pyridin-2-yl)oxy)propyl)-3,5-dimethylpiperazin-1-yl)ethoxy)cyclohexyl)-4,4-dimethyl-5-oxo-2-thioxoimidazolidin-1-yl)-2-(trifluoromethyl)benzonitrile hydrochloride]
  DC50: > 200 nM
  Y: *** (40%<Y<80%)

## C[C@@H]1CN(CCCO[C@H]2CC[C@H](N3C(=S)N(c4ccc(C#N)c(C(F)(F)F)c4)C(=O)C3(C)C)CC2)C[C@H](C)N1CC(=O)Nc1cc(C2CCC(=O)NC2=O)ccn1 (stereo partly drawn) [Cmpd 13, 2-((2R,6S)-4-(3-((trans-4-(3-(4-Cyano-3-(trifluoromethyl)phenyl)-5,5-dimethyl-4-oxo-2-thioxoimidazolidin-1-yl)cyclohexyl)oxy)propyl)-2,6-dimethylpiperazin-1-yl)-N-(4-(2,6-dioxopiperidin-3-yl)pyridin-2-yl)acetamide hydrochloride]
  DC50: ≤ 5 nM
  Y: *** (40%<Y<80%)

## C[C@@H]1CN(CCCC[C@H]2CC[C@H](N3C(=S)N(c4ccc(C#N)c(C(F)(F)F)c4)C(=O)C3(C)C)CC2)C[C@H](C)N1CC(=O)Nc1cc(C2CCC(=O)NC2=O)ccn1 (stereo partly drawn) [Cmpd 14, 2-((2R,6S)-4-(4-(trans-4-(3-(4-Cyano-3-(trifluoromethyl)phenyl)-5,5-dimethyl-4-oxo-2-thioxoimidazolidin-1-yl)cyclohexyl)butyl)-2,6-dimethylpiperazin-1-yl)-N-(4-(2,6-dioxopiperidin-3-yl)pyridin-2-yl)acetamide hydrochloride]
  DC50: 5 to 50 nM
  Y: * (0<Y≤20%)

## C[C@@H]1CN(CCO[C@H]2CC[C@H](N3C(=S)N(c4ccc(C#N)c(C(F)(F)F)c4)C(=O)C3(C)C)CC2)C[C@H](C)N1CCOc1cc(C2CCC(=O)NC2=O)ccn1 (stereo partly drawn) [Cmpd 15, 4-(3-(trans-4-(2-((3R,5S)-4-(2-((4-(2,6-Dioxopiperidin-3-yl)pyridin-2-yl)oxy)ethyl)-3,5-dimethylpiperazin-1-yl)ethoxy)cyclohexyl)-4,4-dimethyl-5-oxo-2-thioxoimidazolidin-1-yl)-2-(trifluoromethyl)benzonitrile hydrochloride]
  DC50: 5 to 50 nM
  Y: *** (40%<Y<80%)
